Like-named read-outs stand apart in the source and are kept apart here.
Legend:
human RORγ = target: T1, human RORγ (Homo sapiens, UniProt P51449); test: In vitro assay of inhibitory effect against RORγ transcriptional activity (GAL4-hRORγ LBD luciferase reporter gene assay in CHO cells); assay type: cell-based; details: for hRORγ luciferase activity, %-of-control: vehicle-control 0.2% DMSO alone = 100%
T1 construct: human RORγ, from Ser253 to Lys518; expressed in transfected cells; host or cells: CHO cells (Chinese hamster ovary), transient co-transfection with pG5-Luc
T1 sequence (P51449 253-518): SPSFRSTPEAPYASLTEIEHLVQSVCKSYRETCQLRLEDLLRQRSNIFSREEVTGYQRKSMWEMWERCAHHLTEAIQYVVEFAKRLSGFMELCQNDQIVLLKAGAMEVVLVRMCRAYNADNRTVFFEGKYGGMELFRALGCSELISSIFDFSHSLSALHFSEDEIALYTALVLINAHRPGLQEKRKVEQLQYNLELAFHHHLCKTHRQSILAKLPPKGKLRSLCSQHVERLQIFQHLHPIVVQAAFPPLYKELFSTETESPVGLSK
Procedure, shortened: (§1)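 In this reporter assay, compounds acted for 2 days on transfected CHO cells carrying GAL4-RORγ LBD (human or mouse) with pG5-Luc. Percent values refer to the 0.2% DMSO control.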

mouse RORγ = target: T2, mouse RORγ (Mus musculus, UniProt P51450); test: In vitro assay of inhibitory effect against RORγ transcriptional activity (GAL4-mRORγ LBD luciferase reporter gene assay in CHO cells); assay type: cell-based; details: for mRORγ luciferase activity, %-of-control: vehicle-control 0.2% DMSO alone = 100%
T2 construct: mouse RORγ, from Ile251 to Lys516; expressed in transfected cells; host or cells: CHO cells (Chinese hamster ovary), transient co-transfection with pG5-Luc
T2 sequence (P51450 251-516): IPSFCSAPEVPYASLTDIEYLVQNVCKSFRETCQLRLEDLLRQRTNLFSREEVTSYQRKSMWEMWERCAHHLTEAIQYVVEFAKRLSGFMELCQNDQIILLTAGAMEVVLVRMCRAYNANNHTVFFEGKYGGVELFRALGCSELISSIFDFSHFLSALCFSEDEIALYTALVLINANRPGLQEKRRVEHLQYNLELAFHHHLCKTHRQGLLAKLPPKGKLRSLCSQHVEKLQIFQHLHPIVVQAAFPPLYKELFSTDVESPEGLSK
Procedure, shortened: as §1

[1] = GAL4-hRORγ LBD luciferase reporter, CHO cells, read-out: LUC EC50 hRORγ
[2] = GAL4-mRORγ LBD luciferase reporter, CHO cells, read-out: LUC EC50 mRORγ
[3] = GAL4-hRORγ LBD / pG5-Luc in CHO cells, 2 days incubation
[4] = GAL4-mRORγ LBD / pG5-Luc in CHO cells, 2 days incubation
[5] = value in parentheses beside the > EC50 bound
[6] = value in parentheses beside the EC50 bound

SMILES	EC50 (human RORγ; [1]) [nM]	EC50 (mouse RORγ; [2]) [nM]	EC50 (human RORγ; [3]) [nM]	EC50 (mouse RORγ; [4]) [nM]	further results
COCCC1=CN(C23CCC(C(=O)O)(C2)C3)C(=O)N[C@@]1(C)c1ccc(CCC(C)(C)C)c(C(F)(F)F)c1 [Example 324]	47	36			
CC(C)C1=CN(C23C4C5C2C2C3C4C52C(=O)O)C(=O)N[C@@]1(C)c1ccc(CCC(C)(C)C)c(Cl)c1 (single isomer, unassigned) [Example 222]	20	40			
CCC1=CN(CCCC(=O)O)C(=O)N[C@@]1(C)c1ccc(CCC(C)(C)C)c(Cl)c1 [Example 69]			20	17	
CC(C)(C)CCc1ccc([C@]2(C)NC(=O)N([C@H]3C[C@H](C(=O)O)C3)C=C2[C@H]2C[C@@H](CO)C2)cc1Cl [Example 205]	281	427			
C[C@@]1(c2ccc(CC3CCCCC3)c(Cl)c2)NC(=O)N(CCC(=O)O)C=C1C1CC1 [Example 347]	109	35			
COC(=O)[C@H]1C[C@H](N2C=C([C@H]3C[C@@H](CO)C3)[C@](C)(c3ccc(CCC(C)(C)C)c(Cl)c3)NC2=O)C1 (single isomer, unassigned) [Example 312]	248	538			
CC(C)(C)CCc1ccc([C@]2(C)NC(=O)N(c3ccncc3)C=C2CCC(=O)O)cc1Cl [Example 231]	692	458			

Continued, in another order:

EC50 (human RORγ; [1]) [nM]	EC50 (mouse RORγ; [2]) [nM]	EC50 (human RORγ; [3]) [nM]	EC50 (mouse RORγ; [4]) [nM]	SMILES	further results
17	11			CC(C)CCOc1c(F)cc([C@]2(C)NC(=O)N(c3ccc(C(=O)O)cc3)C=C2C(C)C)cc1Cl [Example 192]	
17	20			COc1cc(N2C=C(C(C)C)[C@](C)(c3ccc(CCC(C)(C)C)c(Cl)c3)NC2=O)ccc1C(=O)O [Example 226, 4-{(S)-4-[3-Chloro-4-(3,3-dimethyl-butyl)-phenyl]-5-isopropyl-4-methyl-2-oxo-3,4-dihydro-2H-pyrimidin-1-yl}-2-methoxy-benzoic Acid]	
43	47			CC(C)C1=CN(c2ccc(C(=O)O)cc2)C(=O)N[C@@]1(C)c1ccc(CCC(C)(C)C)c(C(F)(F)F)c1 [Example 271, 4-{(S)-4-[4-(3,3-Dimethyl-butyl)-3-trifluoromethyl-phenyl]-5-isopropyl-4-methyl-2-oxo-3,4-dihydro-2H-pyrimidin-1-yl}-benzoic Acid]	
58	40			CC(C)C1=CN(CCC(=O)O)C(=O)N[C@@]1(C)c1ccc(C2=CCC(F)(F)CC2)c(Cl)c1 [Example 327]	
		> 8000	> 8000	CC(C)C1=CN(CCCC(=O)O)C(=O)N[C@]1(C)c1ccc(CCC(C)(C)C)c(Cl)c1 [Example 14]	hRORγ luciferase activity, %-of-control (human RORγ; [5]): (69%); mRORγ luciferase activity, %-of-control (mouse RORγ; [5]): (59%)
		64	27	CC(C)C1=CN(CCC(=O)O)C(=O)N[C@@]1(C)c1ccc(C(C)CC(C)(C)C)c(Cl)c1 (stereo partly shown) [Example 179]	
> 20000	> 20000			CC(C)C[S+]([O-])c1ccc([C@]2(C)NC(=O)N(CCC(=O)O)C=C2C(C)C)cc1Cl (mixture of isomers) [Example 215]	hRORγ luciferase activity, %-of-control (human RORγ; [6]): (77%); mRORγ luciferase activity, %-of-control (mouse RORγ; [6]): (70%)
		19	21	CCCC(CCC)Cc1ccc([C@]2(C)NC(=O)N(CCC(=O)O)C=C2C(C)C)cc1Cl [Example 178]	
		2940	2930	CC(C)C1=CN(CCC(C)C(=O)O)C(=O)NC1(C)c1ccc(CCC(C)(C)C)c(Cl)c1 (single isomer, unassigned) [Example 24]	
		> 8000	> 8000	CC(C)C1=CN(CCC(=O)O)C(=O)N[C@]1(C)c1ccc(C2=CCC(C)(C)CC2)c(Cl)c1 [Example 115, 3-{(R)-4-[3-Chloro-4-(4,4-dimethyl-cyclohex-1-enyl)-phenyl]-5-isopropyl-4-methyl-2-oxo-3,4-dihydro-2H-pyrimidin-1-yl}-propionic Acid]	hRORγ luciferase activity, %-of-control (human RORγ; [5]): (110%); mRORγ luciferase activity, %-of-control (mouse RORγ; [5]): (100%)

Source: US10196363B2, “Dihydropyrimidin-2-one compounds and medical use thereof” (JAPAN TOBACCO INC., priority 2014, dated 2019)
